Laboratory results reported in patent US6838414B2, “Substituted aryl sulphonyl(thio)ureas used as herbicides” (Bayer Aktiengesellschaft, priority 1996, dated 2005).

Key:
Format in all cases: in vivo
weeds [1] = test: Pre-emergence test (overall statement); settings: application rates between 30 g and 125 g of a.i. per hectare
Protocol: (§1) To produce a suitable preparation of active compound, 1 part by weight of active compound is mixed with the stated amount of solvent, the stated amount of emulsifier is added and the concentrate is diluted with water to the desired concentration.
(§2) Seeds of the test plants are sown in normal soil. After about 24 hours, the soil is sprayed with the preparation of the active compound. Advantageously, the amount of water per unit area is kept constant. The active compound concentration in the preparation is not important, only the active compound application rate per unit area is critical.
(§3) After three weeks, the degree of damage to the plants is rated in % damage in comparison with the development of the untreated control.
(§4) The figures denote: • 0%=no effect (like untreated control) • 100%=total destruction

Alopecurus [2] = test: Post-emergence test/greenhouse; settings: rated after three weeks vs untreated control
Protocol: as §1
(§5) Test plants which have a height of 5-15 cm are sprayed with the preparation of the active compound in such a way as to apply the particular amounts of active compound desired per unit area. The concentration of the spray liquor is chosen so that the amounts of active compound desired in each case are applied in 1000 l of water/ha.
as §3, §4

weeds [3] = test: Post-emergence test/greenhouse
Protocol: as §1, §5, §3, §4

Matricaria = test: Post-emergence test/greenhouse; settings: rated after three weeks vs untreated control
Protocol: as §1, §5, §3, §4

Abutilon = test: Post-emergence test/greenhouse; settings: rated after three weeks vs untreated control
Protocol: as §1, §5, §3, §4

Echinochloa = test: Post-emergence test/greenhouse; settings: rated after three weeks vs untreated control
Protocol: as §1, §5, §3, §4

Amaranthus = test: Pre-emergence test/greenhouse; settings: after three weeks
Protocol: as §1, §2, §3, §4

Alopecurus [4] = test: Pre-emergence test/greenhouse; settings: after three weeks
Protocol: as §1, §2, §3, §4

Stellaria = test: Pre-emergence test/greenhouse; settings: after three weeks
Protocol: as §1, §2, §3, §4

Lolium = test: Pre-emergence test/greenhouse; settings: after three weeks
Protocol: as §1, §2, §3, §4

Chenopodium = test: Pre-emergence test/greenhouse; settings: after three weeks
Protocol: as §1, §2, §3, §4

Sorghum = test: Pre-emergence test/greenhouse; settings: after three weeks
Protocol: as §1, §2, §3, §4

[5] = application rate 125 g of ai./ha
[6] = application rate 60 g of ai./ha
[7] = application rate 30 g of ai./ha

Row | Structure (SMILES) | activity against weeds (weeds [1]) | activity against weeds (weeds [3]) | degree of damage to the plants, Alopecurus (Alopecurus [2]; [7]) | degree of damage to the plants, Matricaria (Matricaria; [7]) | degree of damage to the plants, Abutilon (Abutilon; [7]) | degree of damage to the plants, Echinochloa (Echinochloa; [7]) | Amaranthus, % damage (Amaranthus; 30 g of ai./ha) | Alopecurus, % damage (Alopecurus [4]; 30 g of ai./ha) | Steltaria, % damage (Stellaria; 30 g of ai./ha) | Lolium, % damage (Lolium; 30 g of ai./ha) | Sorghum, % damage (Sorghum; 30 g of ai./ha) | Chenopodium, % damage (Chenopodium; 30 g of ai./ha) | other results
1 | COc1cc(OC)nc(NC(=O)NS(=O)(=O)c2c(C)cccc2OC(F)F)n1 [Example 65] | very strong activity against weeds | very strong activity against weeds | – | – | – | – | – | – | – | – | – | – | degree of damage to the plants, Alopecurus (Alopecurus [2]; [5]): 90%; degree of damage to the plants, Matricaria (Matricaria; [5]): 100%; degree of damage to the plants, Abutilon (Abutilon; [5]): 100%; degree of damage to the plants, Echinochloa (Echinochloa; [5]): 90%; Amaranthus, % damage (Amaranthus; 125 g of ai./ha): 95%; Alopecurus, % damage (Alopecurus [4]; 125 g of ai./ha): 95%; Steltaria, % damage (Stellaria; 125 g of ai./ha): 95%; Lolium, % damage (Lolium; 125 g of ai./ha): 70%; Chenopodium, % damage (Chenopodium; 125 g of ai./ha): 95%
2 | CCOc1cccc(C(C)C)c1S(=O)(=O)NC(=O)Nc1nc(OC)nc(OC)n1 [Example 51] | – | very strong activity against weeds | – | – | – | – | – | – | – | – | – | – | degree of damage to the plants, Alopecurus (Alopecurus [2]; [6]): 80%; degree of damage to the plants, Matricaria (Matricaria; [6]): 90%; degree of damage to the plants, Abutilon (Abutilon; [6]): 100%; degree of damage to the plants, Echinochloa (Echinochloa; [6]): 90%
3 | CCCOc1cccc(C(F)(F)F)c1S(=O)(=O)NC(=O)Nc1nc(OC)cc(OC)n1 [Example 24] | – | very strong activity against weeds | 60% | 95% | 95% | 70% | – | – | – | – | – | – | –
4 | COc1nc(NC(=O)NS(=O)(=O)c2c(C)cccc2OC(C)C)nc(OC)n1 [Example 39] | very strong activity against weeds | very strong activity against weeds | 90% | 100% | 100% | 95% | 100% | 100% | 100% | 100% | 100% | 100% | –
5 | Cc1cc(C)nc(NC(=O)NS(=O)(=O)c2c(OC(C)C)cccc2C(F)(F)F)n1 [Example 14] | very strong activity against weeds | – | – | – | – | – | – | 100% | 95% | 100% | 95% | 95% | –
6 | COc1nc(C)nc(NC(=O)NS(=O)(=O)c2c(OC(C)C)cccc2C(F)(F)F)n1 [Example 12] | very strong activity against weeds | very strong activity against weeds | 95% | 100% | 95% | 90% | 100% | 100% | 100% | 100% | 100% | 95% | –
7 | CCCOc1cccc(C(F)(F)F)c1S(=O)(=O)NC(=O)Nc1nc(C)cc(C)n1 [Example 11] | very strong activity against weeds | – | – | – | – | – | – | – | – | – | – | – | Amaranthus, % damage (Amaranthus; 60 g of ai./ha): 100%; Alopecurus, % damage (Alopecurus [4]; 60 g of ai./ha): 100%; Steltaria, % damage (Stellaria; 60 g of ai./ha): 95%; Lolium, % damage (Lolium; 60 g of ai./ha): 100%; Sorghum, % damage (Sorghum; 60 g of ai./ha): 100%; Chenopodium, % damage (Chenopodium; 60 g of ai./ha): 100%
8 | COc1cc(OC)nc(NC(=O)NS(=O)(=O)c2c(C)cccc2OC)n1 [Example 44] | very strong activity against weeds | very strong activity against weeds | 60% | 100% | 100% | 90% | 100% | 100% | 100% | 100% | 100% | 100% | –
9 | C#CCOc1cccc(C)c1S(=O)(=O)NC(=O)Nc1nc(OC)cc(OC)n1 [Example 34] | very strong activity against weeds | very strong activity against weeds | 60% | 90% | 90% | 80% | – | 100% | 90% | – | 90% | 90% | –
10 | CCCOc1cccc(C(F)(F)F)c1S(=O)(=O)NC(=O)Nc1nc(Cl)cc(OC)n1 [Example 17] | – | very strong activity against weeds | – | 95% | 90% | 70% | – | – | – | – | – | – | –
